Measured values published in article PMC7531004, “Discovery of gramicidin A analogues with altered activities by multidimensional screening of a one-bead-one-compound library” (Nature Communications, 2020).
Where a SMILES comes first, the peptide text is derived from it. [ ]: non-standard residue; d: D form. The star is where a group is joined. NHCH2CH2OH = OCCN*; For = O=C*

Tests used:
[1] = H+/Na+ transport assay of bead-derived peptides (one-point); format: biochemical; parameters: key: relative activity; mean of two control wells = 1.00; conditions: bead-derived peptide solution, EYPC/EYPG LUVs;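 also: relative to parent gramicidin A activity set to 1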
Procedure, shortened: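 H+/Na+ transport is monitored through pyranine fluorescence in freshly extruded LUVs after a 30-min room-temperature vortex with each library peptide at a single concentration. Signals are normalized to detergent (Triton X-100) and untreated controls.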

[2] = test system: P388 mouse leukemia cells; conditions: 92 h
Procedure, shortened: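 P388 cells at 1 × 10^4 cells/mL (final) were exposed to library peptides (stocks diluted 250-fold in RPMI1640/10% FBS) for 92 h at 37 °C, 5% CO2. Viable cells were counted by WST-1/1-methoxy PMS (4 h), absorbance 415 nm, and expressed as cell viability (%).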

[3] = test system: Streptococcus pyogenes SSI-9; test: Antibacterial activity assay of bead-derived peptides (three concentrations); format: cell-based; parameters: key: +++: inhibition by the 640-fold diluted peptide solution; ++: inhibition by the 160-fold diluted solution; +: inhibition by the 40-fold diluted solution; -: no inhibition; conditions: S. pyogenes, bead-derived peptide solution, three concentrations
Procedure, shortened: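 Undiluted, 4-fold and 16-fold DMSO-diluted peptide stocks; S. pyogenes SSI-9, 2 × 10^5 CFU, cation-adjusted MHB (50 mg/L Ca2+, 25 mg/L Mg2+) + 5% laked horse blood; 37 °C, 18 h; readout = cell pellet visible or not.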

Row | SMILES | H+/Na+ transport activity normalized against the value of 1 (1.00) [1] | cell viability/% [2] [%] | antibacterial activity [3]
1 | CC(C)C[C@@H](NC(=O)[C@H](C)NC(=O)[C@H](NC(=O)[C@H](C)NC(=O)CNC(=O)[C@@H](NC=O)C(C)C)C(C)C)C(=O)N[C@H](C(=O)N[C@H](CC(C)C)C(=O)N[C@@H](Cc1c[nH]c2ccccc12)C(=O)N[C@H](CC(C)C)C(=O)N[C@@H](Cc1c[nH]c2ccccc12)C(=O)N[C@@H](C(=O)N[C@@H](Cc1c[nH]c2ccccc12)C(=O)N[C@@H](C(=O)N[C@@H](Cc1c[nH]c2ccccc12)C(=O)NCCO)[C@H](C)O)C(C)C)C(C)C [compound 5370] (For-VGA[dV]A[dL]V[dL]W[dL]W[dV]W[dT]W-NHCH2CH2OH) | 1.18 | 100.0 | ++
2 | CC(C)C[C@@H](NC(=O)[C@H](Cc1c[nH]c2ccccc12)NC(=O)[C@H](NC(=O)[C@H](Cc1c[nH]c2ccccc12)NC(=O)[C@@H](CC(C)C)NC(=O)[C@H](Cc1c[nH]c2ccccc12)NC(=O)[C@@H](CC(C)C)NC(=O)[C@@H](NC(=O)[C@H](NC(=O)[C@H](C)NC(=O)[C@H](NC(=O)[C@H](C)NC(=O)CNC(=O)[C@@H](NC=O)C(C)C)C(C)C)C(C)C)C(C)C)[C@H](C)O)C(=O)N[C@@H](Cc1c[nH]c2ccccc12)C(=O)NCCO [compound 10516] (For-VGA[dV]A[dV]V[dL]W[dL]W[dT]W[dL]W-NHCH2CH2OH) | 1.10 | 100.0 | -
3 | CC(C)C[C@@H](NC(=O)[C@H](C)NC(=O)[C@H](NC(=O)[C@H](C)NC(=O)CNC(=O)[C@@H](NC=O)C(C)C)C(C)C)C(=O)N[C@H](C(=O)N[C@H](CC(C)C)C(=O)N[C@@H](Cc1c[nH]c2ccccc12)C(=O)N[C@@H](C(=O)N[C@@H](Cc1c[nH]c2ccccc12)C(=O)N[C@@H](C(=O)N[C@@H](Cc1c[nH]c2ccccc12)C(=O)N[C@@H](C(=O)N[C@@H](Cc1c[nH]c2ccccc12)C(=O)NCCO)C(C)C)C(C)C)C(C)C)C(C)C [compound 2832] (For-VGA[dV]A[dL]V[dL]W[dV]W[dV]W[dV]W-NHCH2CH2OH) | 1.23 | 17.7 | +
4 | CC(C)C[C@@H](NC(=O)[C@H](C)NC(=O)CNC(=O)[C@@H](NC=O)C(C)C)C(=O)N[C@@H](C)C(=O)N[C@@H](C(=O)N[C@H](C(=O)N[C@@H](C(=O)N[C@@H](Cc1c[nH]c2ccccc12)C(=O)N[C@@H](C(=O)N[C@@H](Cc1c[nH]c2ccccc12)C(=O)N[C@@H](C(=O)N[C@@H](Cc1c[nH]c2ccccc12)C(=O)N[C@H](CC(C)C)C(=O)N[C@@H](Cc1c[nH]c2ccccc12)C(=O)NCCO)C(C)C)C(C)C)[C@H](C)O)C(C)C)C(C)C [compound 4493] (For-VGA[dL]A[dV]V[dT]W[dV]W[dV]W[dL]W-NHCH2CH2OH) | 1.19 | 100.0 | -
5 | CC(C)C[C@@H](NC(=O)[C@H](Cc1c[nH]c2ccccc12)NC(=O)[C@@H](CC(C)C)NC(=O)[C@H](Cc1c[nH]c2ccccc12)NC(=O)[C@H](NC(=O)[C@H](Cc1c[nH]c2ccccc12)NC(=O)[C@@H](CC(C)C)NC(=O)[C@@H](NC(=O)[C@H](NC(=O)[C@H](C)NC(=O)[C@H](NC(=O)[C@H](C)NC(=O)CNC(=O)[C@@H](NC=O)C(C)C)C(C)C)C(C)C)C(C)C)C(C)C)C(=O)N[C@@H](Cc1c[nH]c2ccccc12)C(=O)NCCO [compound 8999] (For-VGA[dV]A[dV]V[dL]W[dV]W[dL]W[dL]W-NHCH2CH2OH) | 1.03 | 96.1 | +
